Experimental data reported in ChEMBL document CHEMBL1201862, “PubChem BioAssay data set” (2004).
Counter-ions that a name gives are not always drawn.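 Following 48 hours of exposure in 96-well plates, responses at five concentrations were used to interpolate endpoints linearly. GI50: concentration for 50% inhibition of growth.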 Active and inactive are the calls of the source. No stated cut-off is given here; in the data, active = GI50 up to about 1.1 µM and inactive = higher.

What was measured:
Test in all cases: NCI anticancer screen, dose series, 48 h
786-0 = test system: 786-0
IGROV-1 = test system: IGROV-1
M14 = test system: M14
MOLT-4 = test system: MOLT-4
RXF 393 = test system: RXF 393
SF-295 = test system: SF-295
SK-MEL-5 = test system: SK-MEL-5
SK-OV-3 = test system: SK-OV-3
SNB-78 = test system: SNB-78
OVCAR-5 = test system: OVCAR-5
BT-549 = test system: BT-549
DU-145 = test system: DU-145
Hs-578T = test system: Hs-578T
MCF7 = test system: MCF7
MDA-MB-231 = test system: MDA-MB-231
MDA-MB-435 = test system: MDA-MB-435
MDA-N = test system: MDA-N
NCI/ADR-RES = test system: NCI/ADR-RES
PC-3 = test system: PC-3
T47D = test system: T47D

Structure (SMILES) | GI50 (786-0) | GI50 (IGROV-1) | GI50 (M14) | GI50 (MOLT-4) | GI50 (RXF 393) | GI50 (SF-295) | GI50 (SK-MEL-5) | GI50 (SK-OV-3) | GI50 (SNB-78) | GI50 (OVCAR-5) | GI50 (BT-549) | GI50 (DU-145) | GI50 (Hs-578T) | GI50 (MCF7) | GI50 (MDA-MB-231) | GI50 (MDA-MB-435) | GI50 (MDA-N) | GI50 (NCI/ADR-RES) | GI50 (PC-3) | GI50 (T47D)
CCOC(=O)c1cc(C(=O)O)c(=O)n2c1[nH]c1ccccc12 | > 100 µM (inactive) | 88.9 µM (inactive) | > 100 µM (inactive) | > 100 µM (inactive) | 24.3 µM (inactive) | > 100 µM (inactive) | 60.8 µM (inactive) | 78.7 µM (inactive) | > 100 µM (inactive) |  |  |  |  |  |  |  |  |  |  | 
Cc1ccc(/C=C/C(=O)C(C)C)cc1 | 55 µM (inactive) | 92 µM (inactive) | 58.7 µM (inactive) | 30.2 µM (inactive) | 39.8 µM (inactive) | 38.3 µM (inactive) | 50.9 µM (inactive) | 74.3 µM (inactive) | 64.7 µM (inactive) | 18.4 µM (inactive) |  |  |  |  |  |  |  |  |  | 
NCc1ccccc1-c1c2nc(c(-c3ccccc3CN)c3ccc([nH]3)c(-c3ccccc3CN)c3nc(c(-c4ccccc4CN)c4ccc1[nH]4)C=C3)C=C2 |  | 23.7 µM (inactive) | 21 µM (inactive) | > 10 µM (inactive) | 13.1 µM (inactive) |  | 22.9 µM (inactive) |  | 16.7 µM (inactive) | 13.9 µM (inactive) |  |  |  |  |  |  |  |  |  | 
COC1CCC2C(=O)CCCC2O1 (configuration not stated) | > 100 µM (inactive) | > 100 µM (inactive) | > 100 µM (inactive) | > 100 µM (inactive) | > 100 µM (inactive) | > 100 µM (inactive) | > 100 µM (inactive) | > 100 µM (inactive) | > 100 µM (inactive) | > 100 µM (inactive) |  |  |  |  |  |  |  |  |  | 
O=[N+]([O-])c1ccc(S(=O)(=O)N=Ic2ccccc2)cc1 | > 100 µM (inactive) | > 100 µM (inactive) | > 100 µM (inactive) | > 100 µM (inactive) | > 100 µM (inactive) | > 100 µM (inactive) | > 100 µM (inactive) | > 100 µM (inactive) |  | > 100 µM (inactive) | > 100 µM (inactive) | > 100 µM (inactive) | > 100 µM (inactive) | > 100 µM (inactive) | > 100 µM (inactive) | > 100 µM (inactive) | > 100 µM (inactive) | > 100 µM (inactive) | > 100 µM (inactive) | > 100 µM (inactive)
O=S1(=O)C[C@H](NCc2ccccc2)[C@H](NCc2ccccc2)C1 |  | > 100 µM (inactive) | > 100 µM (inactive) | 23.8 µM (inactive) | > 100 µM (inactive) | > 100 µM (inactive) | > 100 µM (inactive) | > 100 µM (inactive) |  | > 100 µM (inactive) | 94.2 µM (inactive) | > 100 µM (inactive) | 73.3 µM (inactive) | 83.8 µM (inactive) | > 100 µM (inactive) | > 100 µM (inactive) | > 100 µM (inactive) | 61.5 µM (inactive) | 56.5 µM (inactive) | 30.8 µM (inactive)
CCCCCCCCCCCCCCCCCCN(C)CC(COP(=O)([O-])OCC[N+](C)(C)C)OC (configuration not stated) | 6.89 µM (inactive) | 3.1 µM (inactive) | 9.84 µM (inactive) | 3.94 µM (inactive) | 3.4 µM (inactive) | 7.83 µM (inactive) | 27.9 µM (inactive) | 14.1 µM (inactive) | 6.32 µM (inactive) | 4.51 µM (inactive) | 38.5 µM (inactive) | 31.5 µM (inactive) | > 46.1 µM (inactive) | 29.4 µM (inactive) | 57.1 µM (inactive) | > 46.9 µM (inactive) | > 100 µM (inactive) | > 64 µM (inactive) | 18.1 µM (inactive) | > 80.7 µM (inactive)
Cc1cc(C)c(-n2[nH]c(=O)n(C)c2=O)c(C)c1 | > 100 µM (inactive) | > 100 µM (inactive) | > 100 µM (inactive) | > 100 µM (inactive) | > 100 µM (inactive) |  | > 100 µM (inactive) | > 100 µM (inactive) |  | > 100 µM (inactive) | > 100 µM (inactive) | > 100 µM (inactive) | > 100 µM (inactive) | > 100 µM (inactive) | > 100 µM (inactive) | > 100 µM (inactive) | > 100 µM (inactive) | > 100 µM (inactive) | > 100 µM (inactive) | > 100 µM (inactive)
CCc1cccc(C)c1NC(=O)C(=O)CC(=O)c1ccc(Cl)s1 | > 100 µM (inactive) | > 100 µM (inactive) | > 100 µM (inactive) | > 100 µM (inactive) |  | > 100 µM (inactive) |  | > 100 µM (inactive) | > 100 µM (inactive) |  |  |  |  |  |  |  |  |  |  | 
Nc1nnc(O)c2c1c(I)cn2C1OC(CO)C(O)C1O (configuration not stated) |  | 0.643 µM (active) | 0.64 µM (active) | 0.0474 µM (active) | 1.06 µM (active) | 1.43 µM (inactive) | 1.89 µM (inactive) | > 100 µM (inactive) | 1.17 µM (inactive) | 0.689 µM (active) |  |  |  |  |  |  |  |  |  | 
CCCCc1oc2ccccc2c1C(=O)c1cc(I)c(OCCN(CC)CC)c(I)c1 [AMIODARONE HYDROCHLORIDE] |  | 11.1 µM (inactive) |  | 3.4 µM (inactive) | 3.82 µM (inactive) | 4.63 µM (inactive) | 4.7 µM (inactive) | 5.98 µM (inactive) | 7.6 µM (inactive) | 5.21 µM (inactive) |  |  |  | 5.19 µM (inactive) |  |  |  | 5.86 µM (inactive) |  | 
